Experimental data: patent publication US20100297256A1, “METHODS AND COMPOSITIONS FOR INHIBITING INTEGRINS USING TELLURIUM-CONTAINING COMPOUNDS” (priority 2007, published 2010)

How the values were obtained:
αVβ3 integrin = biological target: T1, αVβ3 integrin (Homo sapiens, UniProt P05106+P06756); experiment: ELISA-integrin; type: binding; conditions: 0.5-10 μg/ml
T1 construct: purchased Chemicon
Procedure: Plates coated with C16 or fibronectin were blocked with 10% BSA for 1 hour and washed with PBS. 20 ng/well of integrin with or without AS101/SAS was applied on fibronectin or 2 ng C16 coated well and incubated for 1.5 hours at 37° C. The wells were thereafter washed with PBS-T and mouse anti-integrin was added thereto for 1 hour at 37° C. Cells were then washed again and anti-mouse-horseradish peroxidase was added for another 1 hour at 37° C. Finally, cells were washed, TBM-substrate was added for color development, and absorption was read at 595 nm. Data presented as ±SE, bar *=p<0.005, evaluated by T-test.

HUVEC endothelial cells = experiment: Tube formation assay, HUVEC; type: cell-based; conditions: HUVEC on Matrigel, 3 hours
Procedure: Plates (48 wells) were coated with 150 μl of Matrigel and incubated at 37° C. for 1 hour to promote gelling. Svec4-10 or HUVEC cells (40,000 cells) in 0.5 ml of serum-free DMEM with varying concentration of AS101 or SAS were added to each well. For positive control, ECGS was added at a concentration of 50 μg/ml. All samples were performed in sextuplicate. After 3 hours incubation, the plates were fixed with methanol and stained with crystal violet. Randomly chosen fields were photographed and density of tube formation was analyzed by imageJ.

RAW cells = experiment: Cell attachment assay, RAW; type: cell-based
LAN-1 cells = experiment: Cell attachment assay, LAN-1; type: cell-based, human; conditions: for cell attachment to fibronectin: LAN-1; for cell attachment to C16 and AG73 peptides: LAN-1, data not shown, compared with SVEC4-10
Procedure: The cell attachment assays were performed in sextuplicate in 96-well plates. The 1 μg of C16 or AG73 peptide in 60 μl double-distilled water was added to each well, and this volume was allowed to air dry overnight in a biosafety hood at room temperature (or fibronectin 20 ng/80 μl for 1 hour at 37° C.). Thereafter, nonspecific binding sites of the tissue culture plastic were blocked by adding 200 μl of 1% bovine serum albumin (BSA) in PBS for 1 hour at 37° C. LAN-1, B16F10 and SVEC4-10 cells were harvested by agitation, washed three times in serum-free DMEM and resuspended in 1% BSA-DMEM. After 20 minutes incubation in 1% BSA in a tube, cells were washed and resuspended in 0.1% BSA. The cells were counted using a hemocytometer and brought to a final cell count of 1×10^6/ml in the 0.1% BSA medium. Cells were divided into tubes and each tube was treated with one of the following in DMEM: ECGS (endothelial cell growth supplement) (50 μg/ml), AS101 (1-5 μg/ml), SAS (1-5 μg/ml), ECGS (50 μg/ml)+SAS (1-5 μg/ml), ECGS (50 μg/ml)+AS101 (1-5 μg/ml), 10% serum, 10% serum+AS101 (1-5 μg/ml) or 10% serum+SAS (1-5 μg/ml).
Next, 150 μl of the treated cell suspension was added to each well (20,000 cells/well), which had been coated with peptides, and incubated for 50 minutes at 37° C. After 50 minutes, the unattached cells were removed by aspiration and the remaining attached cells were fixed and stained by crystal violet. 100 μl aliquot of 10% SDS was thereafter added to each well for cell lysis and dye release and absorption was read with a TECAN spectrophotometer at 570 nm.
Attached cells were washed with PBS without Ca^+2/Mg^+2. 100 μl of 0.2% crystal violet in 20% methanol was thereafter added and the cells were incubated for 10 minutes at room temperature. At the end of incubation time, cells were washed twice with double-distilled water and 100 μl of 10% SDS was added. Dye bound to the cell is released by SDS and the absorption by the dye is measured by colorimetry at 570 nm. The amount of stained cells is then considered to be proportional to the measured absorption by the dye

integrin β subunits = experiment: Multiple anti-integrin antibody binding assay, β subunits; type: cell-based; conditions: SVEC cells
Procedure: The specificity of tellurium-containing compounds to integrins was tested by examining the effect of AS101 and SAS on the attachment of SVEC cells to specific anti-integrin antibodies. Commercially available kits (R&D Biosystems) with anti-integrin coated wells were used, and attachment was determined according to the manufacturer's instructions.

FAK = experiment: Western blot analysis of FAK phosphorylation; type: cell-based, murine
Procedure: Cell lysates (20 μg) were diluted with an equal volume of 2×SDS (sodium dodecyl sulfate) sample buffer and separated according to size by SDS-PAGE (SDS-polyacrylamide gel electrophoresis). Proteins were transferred to a polyvinylidene difluoride membrane via electroelution by a transfer system (Bio-Rad), blocked for 1 hour by blocking buffer (5% skim milk in PBS with 0.05% Tween 20) and incubated for 2 hours in room temperature or for overnight in 4° C. with primary antibodies diluted in blocking buffer. Membranes were washed several times in PBS with 0.05 Tween (PBS-T) and incubated for 1 hour with horseradish peroxidase-conjugated anti-mouse or anti-rabbit antibodies (diluted 1:10,000). Proteins were detected by ECL Western Blotting Detection Reagents according to the instructions of the manufacturer (PIERCE).

[1] = test system: chick chorioallantoic membrane; experiment: Chick chorioallantoic membrane (CAM) angiogenesis assay; type: in vivo; conditions: 5 μg/ml combined with ECGS 50 μg/ml, 3 days
Procedure: Collagen I solution was prepared by mixing 1.8 ml of collagen I, 4.14 μl of […] NaOH and 0.2 ml of 10×PBS/200 mM HEPES (pH 7.4). 10 μl of a mixture containing 0.1 ml of the collagen I solution and 0.2 ml of PBS either with or without AS101 (5 μg/ml) or SAS (5 μg/ml) was loaded onto a quarter piece of a Thermonox disc and gelled by warming to room temperature for 15 minutes. The disc was then applied to the chorioallantoic membrane of a 10-days-old embryo, following preparation of the eggs by removing 2 ml of albumin from the 3-days-old embryo and by “opening a window” to the 7-day-old embryo. ECGS (50 μg/ml) in PBS was used to induce angiogenesis and 5 μg/ml of AS101 or SAS were mixed with ECGS. After 3-days incubation, the negative or positive response was assessed under a binocular. Positive response, namely the appearance of a typical spokewheel pattern of new blood vessels around the loaded samples, was determined by a blinded observer. Assays for each test sample were carried out three times, and each experiment contains 10 to 12 eggs/data point.

[2] = B16F10, 5 to 10 minutes incubation
[3] = LAN-1, 5 to 10 minutes incubation
[4] = SVEC4-10, 5 to 10 minutes incubation

T1 sequence (P06756 31-889 limits assumed): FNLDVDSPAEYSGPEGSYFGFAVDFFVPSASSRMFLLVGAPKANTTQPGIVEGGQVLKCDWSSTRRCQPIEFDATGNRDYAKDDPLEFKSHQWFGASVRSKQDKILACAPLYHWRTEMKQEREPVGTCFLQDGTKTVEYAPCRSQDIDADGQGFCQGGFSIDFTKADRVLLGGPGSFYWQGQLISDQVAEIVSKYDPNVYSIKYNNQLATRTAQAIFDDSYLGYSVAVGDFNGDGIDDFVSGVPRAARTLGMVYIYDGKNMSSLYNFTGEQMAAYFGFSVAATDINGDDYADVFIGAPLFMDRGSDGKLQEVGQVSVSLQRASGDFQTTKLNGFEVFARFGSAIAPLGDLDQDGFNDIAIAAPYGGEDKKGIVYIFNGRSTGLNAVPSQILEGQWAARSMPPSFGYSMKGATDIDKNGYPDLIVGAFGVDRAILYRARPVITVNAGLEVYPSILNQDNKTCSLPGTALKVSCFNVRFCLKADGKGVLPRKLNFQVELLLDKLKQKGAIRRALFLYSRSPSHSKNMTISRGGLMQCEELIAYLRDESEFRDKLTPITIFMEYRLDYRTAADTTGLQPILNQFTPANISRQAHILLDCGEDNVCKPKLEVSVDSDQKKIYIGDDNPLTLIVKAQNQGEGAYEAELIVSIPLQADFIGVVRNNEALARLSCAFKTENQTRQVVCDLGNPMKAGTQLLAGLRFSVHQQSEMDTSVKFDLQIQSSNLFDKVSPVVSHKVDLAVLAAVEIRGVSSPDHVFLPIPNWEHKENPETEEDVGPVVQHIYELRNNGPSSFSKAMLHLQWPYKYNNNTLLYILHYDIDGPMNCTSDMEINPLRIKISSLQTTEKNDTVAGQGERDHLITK
T1 sequence (P06756 891-1048 limits assumed): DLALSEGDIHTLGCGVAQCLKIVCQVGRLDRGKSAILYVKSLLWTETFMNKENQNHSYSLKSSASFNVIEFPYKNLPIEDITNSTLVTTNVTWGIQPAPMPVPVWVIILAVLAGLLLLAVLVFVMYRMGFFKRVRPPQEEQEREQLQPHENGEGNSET
T1 sequence (P05106 27-788): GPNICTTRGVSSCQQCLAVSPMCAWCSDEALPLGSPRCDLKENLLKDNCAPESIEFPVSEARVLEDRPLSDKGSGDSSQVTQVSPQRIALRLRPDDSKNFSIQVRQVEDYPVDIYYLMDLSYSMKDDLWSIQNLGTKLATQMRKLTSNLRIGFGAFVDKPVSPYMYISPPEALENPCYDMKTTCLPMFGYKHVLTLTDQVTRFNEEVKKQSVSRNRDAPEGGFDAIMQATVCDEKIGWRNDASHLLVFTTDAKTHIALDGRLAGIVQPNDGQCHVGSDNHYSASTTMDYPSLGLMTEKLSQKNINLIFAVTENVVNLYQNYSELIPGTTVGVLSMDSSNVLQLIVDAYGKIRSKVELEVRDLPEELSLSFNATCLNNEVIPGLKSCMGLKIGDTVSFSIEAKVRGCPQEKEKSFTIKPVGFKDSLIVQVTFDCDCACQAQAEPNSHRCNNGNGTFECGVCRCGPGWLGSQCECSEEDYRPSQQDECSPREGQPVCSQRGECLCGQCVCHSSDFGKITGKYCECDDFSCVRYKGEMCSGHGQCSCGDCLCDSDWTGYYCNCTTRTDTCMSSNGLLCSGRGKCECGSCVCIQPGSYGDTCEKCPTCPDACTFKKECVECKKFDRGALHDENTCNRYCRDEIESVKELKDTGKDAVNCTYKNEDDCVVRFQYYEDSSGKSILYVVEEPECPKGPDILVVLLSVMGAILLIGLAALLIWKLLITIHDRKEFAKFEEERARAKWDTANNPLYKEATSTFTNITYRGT

## Cl[TeH]1(Cl)(Cl)OCCO1 [AS101, ammonium trichloro(dioxyethylene-O,O′)tellurate]
αVβ3 integrin
  C16 peptide binding to αVβ3 integrin: block
  fibronectin binding to αVβ3 integrin: block
HUVEC endothelial cells
  number of tubes formed: reduced the number of tubes formed
RAW cells
  cell attachment to fibronectin: inhibited cell attachment to fibronectin
LAN-1 cells
  cell attachment to fibronectin: inhibited cell attachment to fibronectin
  cell attachment to C16 and AG73 peptides: similar
Integrin β subunits
  cell attachment to antibodies against integrin β subunits: considerable inhibition
FAK; [2]
  ECGS-induced FAK phosphorylation at Y397: inhibition of ECGS-induced FAK phosphorylation at Y397
FAK; [3]
  ECGS-induced FAK phosphorylation at Y397: inhibition of ECGS-induced FAK phosphorylation at Y397
FAK; [4]
  ECGS-induced FAK phosphorylation at Y397: inhibition of ECGS-induced FAK phosphorylation at Y397
[1]
  angiogenic capability of ECGS: reduced the angiogenic capability of ECGS to baseline levels

## O=C1O[Te]23OC(=O)C(O2)C2O[Te]4(OC(=O)C(O4)C1O3)OC2=O [SAS, [TeO4(COCH)2]2]
αVβ3 integrin
  C16 peptide binding to αVβ3 integrin: block
  fibronectin binding to αVβ3 integrin: block
HUVEC endothelial cells
  number of tubes formed: reduced the number of tubes formed
RAW cells
  cell attachment to fibronectin: inhibited cell attachment to fibronectin
LAN-1 cells
  cell attachment to fibronectin: inhibited cell attachment to fibronectin
  cell attachment to C16 and AG73 peptides: similar
Integrin β subunits
  cell attachment to antibodies against integrin β subunits: considerable inhibition
FAK; [2]
  ECGS-induced FAK phosphorylation at Y397: inhibition of ECGS-induced FAK phosphorylation at Y397
FAK; [3]
  ECGS-induced FAK phosphorylation at Y397: inhibition of ECGS-induced FAK phosphorylation at Y397
FAK; [4]
  ECGS-induced FAK phosphorylation at Y397: inhibition of ECGS-induced FAK phosphorylation at Y397
[1]
  angiogenic capability of ECGS: reduced the angiogenic capability of ECGS to baseline levels
